Experimental data as given in PubChem BioAssay (NCI).
Several values for one entry are separate records, joined by “and”; a condition that tells them apart may be missing. Identical values can stand only once.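 The compound was tested at five concentrations on cells cultured in 96-well plates, with a 48-hour exposure period. GI50 = concentration required for 50% inhibition of growth. Definition used: TGI = concentration required for complete inhibition of growth.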

Assays:
Assay in all cases: NCI-60 cell line screen, 48 h
A498 renal = tested on: A498 renal
RXF 393 renal = tested on: RXF 393 renal
K-562 leukemia = tested on: K-562 leukemia
SNB-75 CNS = tested on: SNB-75 CNS
MDA-MB-435 = tested on: MDA-MB-435
HT29 colon = tested on: HT29 colon
OVCAR-5 ovarian = tested on: OVCAR-5 ovarian
CAKI-1 renal = tested on: CAKI-1 renal
TK-10 renal = tested on: TK-10 renal
NCI-H23 lung = tested on: NCI-H23 lung

## Cc1[nH]nc2ncc(C(=O)N3CCC[C@H]3c3ccc(Cl)cc3)cc12
A498 renal
  GI50: 32.5 µM
  TGI: > 100 µM
RXF 393 renal
  GI50: 39.5 µM
  TGI: > 100 µM
K-562 leukemia
  GI50: 37.1 µM
  TGI: > 100 µM
SNB-75 CNS
  GI50: 84.4 µM
  TGI: > 100 µM
MDA-MB-435
  GI50: 98.1 µM
  TGI: > 100 µM
HT29 colon
  GI50: > 100 µM
  TGI: > 100 µM
OVCAR-5 ovarian
  GI50: > 100 µM
  TGI: > 100 µM
CAKI-1 renal
  GI50: > 100 µM
  TGI: > 100 µM
TK-10 renal
  GI50: 94.2 µM
  TGI: > 100 µM
NCI-H23 lung
  GI50: > 100 µM
  TGI: > 100 µM

## COc1cc(C2CC(=O)Nc3c2c(C)nn3-c2nc3ccccc3[nH]2)cc(OC)c1O (stereo not given)
A498 renal
  GI50: 1.86 µM
  TGI: 6.1 µM
RXF 393 renal
  GI50: 2.17 µM
  TGI: 5.14 µM
K-562 leukemia
  GI50: 4.67 µM
  TGI: > 100 µM
SNB-75 CNS
  GI50: 1.85 µM
  TGI: 5.13 µM
MDA-MB-435
  GI50: 1.98 µM
  TGI: 4.42 µM
HT29 colon
  GI50: 3.66 µM
  TGI: 16.6 µM
OVCAR-5 ovarian
  GI50: 11.6 µM
  TGI: 30.4 µM
CAKI-1 renal
  GI50: 2.36 µM
  TGI: 5.44 µM
TK-10 renal
  GI50: 2.84 µM
  TGI: 7.67 µM
NCI-H23 lung
  GI50: 3.15 µM
  TGI: 11.2 µM

## O=C1NC(=NCCc2ccccn2)S/C1=C\c1ccc2ncccc2c1
A498 renal
  GI50: 4.62 µM
  TGI: 21.1 µM
RXF 393 renal
  GI50: 8.97 µM
  TGI: > 25 µM
K-562 leukemia
  GI50: 9.99 µM
  TGI: > 25 µM
SNB-75 CNS
  GI50: 1.69 µM
  TGI: > 20.7 µM
MDA-MB-435
  GI50: 9.59 µM
  TGI: > 25 µM
HT29 colon
  GI50: 13.8 µM
  TGI: > 25 µM
OVCAR-5 ovarian
  GI50: > 22.3 µM
  TGI: > 25 µM
CAKI-1 renal
  GI50: 6.94 µM
  TGI: > 21.7 µM
TK-10 renal
  GI50: 7.33 µM
  TGI: 24.5 µM
NCI-H23 lung
  GI50: 11.1 µM
  TGI: > 25 µM

## Cn1c(=O)c(Oc2ccc(F)cc2F)cc2cnc(NC3CCOCC3)nc21
A498 renal
  GI50: 5 µM
  TGI: > 25 µM
RXF 393 renal
  GI50: 24.3 µM
  TGI: > 25 µM
K-562 leukemia
  GI50: > 25 µM
  TGI: > 25 µM
SNB-75 CNS
  GI50: > 15.5 µM
  TGI: > 25 µM
MDA-MB-435
  GI50: > 25 µM
  TGI: > 25 µM
HT29 colon
  GI50: > 25 µM
  TGI: > 25 µM
OVCAR-5 ovarian
  GI50: > 25 µM
  TGI: > 25 µM
CAKI-1 renal
  GI50: > 25 µM
  TGI: > 25 µM
TK-10 renal
  GI50: 18.6 µM
  TGI: > 25 µM
NCI-H23 lung
  GI50: > 25 µM
  TGI: > 25 µM

## CC1(C)CCC(C)(C)c2cc(NC(=O)c3ccc(C(=O)O)cc3)ccc21
A498 renal
  TGI: 85.1 µM
RXF 393 renal
  TGI: > 79.9 µM
K-562 leukemia
  TGI: > 100 µM
SNB-75 CNS
  TGI: > 100 µM
MDA-MB-435
  TGI: > 77.8 µM
HT29 colon
  TGI: > 95 µM
OVCAR-5 ovarian
  TGI: > 95.2 µM
CAKI-1 renal
  TGI: 98.6 µM
TK-10 renal
  TGI: 85.3 µM
NCI-H23 lung
  TGI: 53.9 µM

## CC1Cc2ccccc2N1C(=O)Cc1nc(N2CCOCC2)cc(=O)[nH]1 (stereo not given)
A498 renal
  GI50: 0.026 µM and 0.0929 µM
  TGI: 0.189 µM and 0.559 µM
RXF 393 renal
  GI50: 0.277 µM and 1.4 µM
  TGI: 8.17 µM and 16.2 µM
K-562 leukemia
  GI50: > 100 µM
  TGI: > 100 µM
SNB-75 CNS
  GI50: 0.188 µM and 1.16 µM
  TGI: > 100 µM and 23.3 µM
MDA-MB-435
  GI50: 20.9 µM and 27.7 µM
  TGI: > 100 µM
HT29 colon
  GI50: 8.25 µM and 34.5 µM
  TGI: > 100 µM
OVCAR-5 ovarian
  GI50: 9.09 µM and 18.2 µM
  TGI: > 100 µM
CAKI-1 renal
  GI50: 10.5 µM and 28 µM
  TGI: > 100 µM
TK-10 renal
  GI50: 14.5 µM and 32.1 µM
  TGI: > 100 µM
NCI-H23 lung
  GI50: 48.7 µM and > 91.5 µM
  TGI: > 100 µM
